According to patent publication US20250282827A1, “LIPIDATED POLYMYXIN ANALOGUES” (priority 2021, published 2025):
In brackets after ≈: the same amount, converted by molar mass. Where two headings read alike, the source gives them in different places. Positions of bridges follow the written chain, without caps; N, C: chain ends. Non-standard residues stand in square brackets, D forms with d. Residues, ends and D or L forms follow the SMILES beside them. *: point of attachment. Ethyl(2-propionyloxy) = CCC(=O)OCC*; Ethyl(2-OPiv) = CC(C)(C)C(=O)OCC*; Ethyl(2-OBz) = O=C(OCC*)c1ccccc1; Dab = NCC[C@H](N)C(=O)O; X3 = CCCC(C)C(=O)OCC*

What was measured:
[1] = tested on: E. coli ATCC 25922; type: cell-based, Escherichia coli
Excerpt: (§1) All 81 compounds prepared in Examples 2 and 3 underwent screening against a panel of Gram-negative bacterium to assess their ability to inhibit bacterial growth. […] The median value is presented.

[2] = tested on: A. baumannii ATCC 19606; type: cell-based, Acinetobacter baumannii
Excerpt: as §1

[3] = tested on: P. aeruginosa ATCC 27853; type: cell-based, Pseudomonas aeruginosa
Excerpt: as §1

[4] = tested on: K. pneumoniae ATCC 33495; type: cell-based, Klebsiella pneumoniae
Excerpt: as §1

[5] = tested on: K. pneumoniae ATCC 700603; type: cell-based, Klebsiella pneumoniae
Excerpt: as §1

[6] = tested on: K. pneumoniae ATCC MS6671; type: cell-based, Klebsiella pneumoniae
Excerpt: as §1

[7] = tested on: E. coli ATCC MS8345; type: cell-based, Escherichia coli
Excerpt: as §1
Expansion of the polymyxin macrocycle by substituting […]) offered little advantage in antimicrobial activity but was generally well tolerated although for A. baumanni and P. aeruginosa this was detrimental.

[8] = tested on: colistin-resistant E. coli; type: cell-based, Escherichia coli; settings: colistin-resistant
Excerpt: (§2) Given the promising antimicrobial activity and low toxicity associated with compounds 29, 35 and to a lesser extent 38, these compounds were progressed to a further round of phenotypic antimicrobial susceptibility testing using a panel of clinically relevant multidrug resistant Gram-negative pathogens. This panel included isolates phenotypically characterised as carbapenem-resistant Enterobacteriacea (CRE), extended spectrum β-lactamase (ESBL) producing Enterobacteriacea, colistin-resistant E. coli, carbapenem-resistant Acinetobacter baumannii (CRAB) or carbapenem-resistant Pseudomonas aeruginosa (CRPA). These isolates were chosen because each was resistant to multiple different families of clinically used antibiotics making treatment options limited and importantly, each of these pathogen types are recognised as “Priority 1: CRITICAL” on the World Health Organization (WHO) priority pathogen list for R&D of new antibiotics. Antimicrobial activity against any of these pathogens would therefore be of clinical importance. […] However, we note that many of the compounds tested in Example 4 did show good activity against colistin-resistant E. coli.

[9] = tested on: carbapenem-resistant Acinetobacter baumannii (CRAB); type: cell-based; settings: carbapenem-resistant (CRAB)
Excerpt: as §2

[10] = tested on: carbapenem-resistant Enterobacteriacea (CRE); type: cell-based
Excerpt: as §2

[11] = tested on: carbapenem-resistant Pseudomonas aeruginosa (CRPA); type: cell-based; settings: carbapenem-resistant (CRPA)
Excerpt: as §2

[12] = tested on: kidney organoids derived from human induced pluripotent stem cells; test: Nephrotoxicity on kidney organoids, renal tubule deterioration by bright field imaging; type: cell-based; settings: scored after 48 h; also: key: 1 = unaffected; 2 = mild deterioration; 3 = severe deterioration; 4 = complete deterioration
Description: Selected polymyxin analogues were evaluated for cytotoxicity in physiologically relevant human kidney tissue, using kidney organoids derived from human induced pluripotent stem cells (Soo et al. 2018). Monolipidated analogues 29, 31, 33, containing a propyl, decyl or phenyl lipid, dilapidated compounds, 35, 38, 39, containing a propyl, tert-butyl or phenyl, lipid, respectively and the N-capped, di-lipidated (phenyl) 49 were selected.
The control compound polymyxin B and the seven ClipPA analogues were tested by adding a range of concentrations (based on Gallado-Godoy et al. 2016) to the organoids at day 12 of the protocol, shown previously to correspond to optimal maturity of the organoid tissues.
Toxicity was scored after 48 h for signs of renal tubule deterioration visible by bright field imaging (not shown).

[13] = tested on: Vero cell line; test: Cellular toxicity against Vero cell line; type: cell-based; settings: Vero cell line; for IC50 Vero: ± standard error
Description: (§3) FIG. 6 is a graph showing cell survival as a function of the indicated compound concentration. Data are representative of triplicate experiments.
(§4) To evaluate if the ClipPA modifications introduced any new toxicity, inhibitory concentrations against Vero and HaCaT cell lines were determined. […] The standard error for each measurement is shown.

[14] = tested on: HaCaT cell line; test: Cellular toxicity against HaCaT cell line; type: cell-based; settings: HaCaT cell line; for IC50 HaCaT: ± standard error
Description: as §3, §4

[15] = colistin-resistant strain, median of triplicate

CCC(=O)OCCSC[C@@H]1NC(=O)[C@@H](Cc2ccccc2)NC(=O)[C@H](CCN)NC(=O)[C@@H](NC(=O)[C@H](CCN)NC(=O)[C@@H](NC(=O)[C@H](CCN)NC(=O)[C@@H](N)CSCCOC(=O)CC)[C@@H](C)O)CCNC(=O)[C@H]([C@@H](C)O)NC(=O)[C@H](CCN)NC(=O)[C@H](CCN)NC1=O [Compound 35] (H-C(Ethyl(2-propionyloxy))[Dab]T[Dab][Dab][Dab][dF]C(Ethyl(2-propionyloxy))[Dab][Dab]T; lactam 5-C)
MIC E. coli ATCC 25922 ([1]; ATCC 25922): 0.5 µg/mL (≈ 0.369 µM)
MIC A. baumannii ATCC 19606 ([2]; ATCC 19606): 32 µg/mL (≈ 23.6 µM)
MIC P. aeruginosa ATCC 27853 ([3]; ATCC 27853): >32 µg/mL
MIC K. pneumoniae ATCC 33495 ([4]; ATCC 33495): 1 to 2 µg/mL
MIC K. pneumoniae ATCC 700603 ([5]; ATCC 700603): 1 µg/mL (≈ 0.737 µM)
MIC K. pneumoniae ATCC MS6671 ([6]; ATCC MS6671): >32 µg/mL
MIC E. coli ATCC MS8345 ([7]; ATCC MS8345): >32 µg/mL
MIC [8]: >32 µg/mL
MIC [9]: 8 µg/mL (≈ 5.9 µM)
MIC ([10]; E. cloacae, IMP-4): 2 µg/mL (≈ 1.47 µM)
MIC ([10]; E. coli, NDM-1): 2 µg/mL (≈ 1.47 µM)
MIC ([10]; K. pneumoniae, KPC-2): 4 µg/mL (≈ 2.95 µM)
MIC ([10]; K. pneumoniae, NDM-5): 4 µg/mL (≈ 2.95 µM)
MIC [11]: >32 µg/mL

C[C@@H](O)[C@@H]1NC(=O)[C@H](CCN)NC(=O)[C@H](CCN)NC(=O)[C@H](CSCCOC(=O)c2ccccc2)NC(=O)[C@@H](Cc2ccccc2)NC(=O)[C@H](CCN)NC(=O)[C@@H](NC(=O)[C@H](CCN)NC(=O)[C@@H](NC(=O)[C@H](CCN)NC(=O)[C@@H](N)CSCCOC(=O)c2ccccc2)[C@@H](C)O)CCNC1=O [Compound 39] (H-C(Ethyl(2-OBz))[Dab]T[Dab][Dab][Dab][dF]C(Ethyl(2-OBz))[Dab][Dab]T; lactam 5-C)
MIC E. coli ATCC 25922 ([1]; median of triplicate): 0.5 µg/mL (≈ 0.344 µM)
MIC A. baumannii ATCC 19606 ([2]; median of triplicate): 2 µg/mL (≈ 1.38 µM)
MIC P. aeruginosa ATCC 27853 ([3]; median of triplicate): 2 µg/mL (≈ 1.38 µM)
MIC K. pneumoniae ATCC 33495 ([4]; median of triplicate): 0.5 µg/mL (≈ 0.344 µM)
MIC K. pneumoniae ATCC 700603 ([5]; median of triplicate): 0.5 µg/mL (≈ 0.344 µM)
MIC K. pneumoniae ATCC MS6671 ([6]; median of triplicate): >32 µg/mL
MIC E. coli ATCC MS8345 [7, 15]: 4 µg/mL (≈ 2.75 µM)
Score (nephrotoxicity on kidney organoids) ([12]; 100 μM): 1
Score (nephrotoxicity on kidney organoids) ([12]; 300 μM): 3
Score (nephrotoxicity on kidney organoids) ([12]; 1 mM): 4
fold more toxic compared to compound 29 [13]: ~5 fold
IC50 Vero [13]: 521.0 ± 17.05 µg/mL (≈ 359 µM)
fold more toxic compared to compound 29 [14]: ~5 fold
IC50 HaCaT [14]: 657.7 ± 87.51 µg/mL (≈ 453 µM)

CCC(=O)OCCSC[C@@H]1NC(=O)[C@@H](Cc2ccccc2)NC(=O)[C@H](CCN)NC(=O)[C@@H](NC(=O)[C@H](CCN)NC(=O)[C@@H](NC(=O)[C@H](CCN)NC(=O)[C@@H](N)CSCCOC(=O)c2ccccc2)[C@@H](C)O)CCNC(=O)[C@H]([C@@H](C)O)NC(=O)[C@H](CCN)NC(=O)[C@H](CCN)NC1=O [Compound 47] (H-C(Ethyl(2-OBz))[Dab]T[Dab][Dab][Dab][dF]C(Ethyl(2-propionyloxy))[Dab][Dab]T; lactam 5-C)
MIC E. coli ATCC 25922 ([1]; median of triplicate): 2 to 4 µg/mL
MIC A. baumannii ATCC 19606 ([2]; median of triplicate): >32 µg/mL
MIC P. aeruginosa ATCC 27853 ([3]; median of triplicate): >32 µg/mL
MIC K. pneumoniae ATCC 33495 ([4]; median of triplicate): 2 to 4 µg/mL
MIC K. pneumoniae ATCC 700603 ([5]; median of triplicate): 2 to 4 µg/mL
MIC K. pneumoniae ATCC MS6671 ([6]; median of triplicate): >32 µg/mL
MIC E. coli ATCC MS8345 [7, 15]: >32 µg/mL
Score (nephrotoxicity on kidney organoids) ([12]; 100 μM): 1
Score (nephrotoxicity on kidney organoids) ([12]; 300 μM): 2
Score (nephrotoxicity on kidney organoids) ([12]; 1 mM): 3

C[C@@H](O)[C@@H]1NC(=O)[C@H](CCN)NC(=O)[C@H](CCN)NC(=O)[C@H](CSCCOC(=O)C(C)(C)C)NC(=O)[C@@H](Cc2ccccc2)NC(=O)[C@H](CCN)NC(=O)[C@@H](NC(=O)[C@H](CCN)NC(=O)[C@@H](NC(=O)[C@H](CCN)NC(=O)[C@@H](N)CSCCOC(=O)c2ccccc2)[C@@H](C)O)CCNC1=O [Compound 48] (H-C(Ethyl(2-OBz))[Dab]T[Dab][Dab][Dab][dF]C(Ethyl(2-OPiv))[Dab][Dab]T; lactam 5-C)
MIC E. coli ATCC 25922 ([1]; median of triplicate): 2 µg/mL (≈ 1.4 µM)
MIC A. baumannii ATCC 19606 ([2]; median of triplicate): 32 µg/mL (≈ 22.3 µM)
MIC P. aeruginosa ATCC 27853 ([3]; median of triplicate): 2 µg/mL (≈ 1.4 µM)
MIC K. pneumoniae ATCC 33495 ([4]; median of triplicate): 2 to 4 µg/mL
MIC K. pneumoniae ATCC 700603 ([5]; median of triplicate): 4 µg/mL (≈ 2.79 µM)
MIC K. pneumoniae ATCC MS6671 ([6]; median of triplicate): >32 µg/mL
MIC E. coli ATCC MS8345 [7, 15]: >32 µg/mL
Score (nephrotoxicity on kidney organoids) ([12]; 100 μM): 1
Score (nephrotoxicity on kidney organoids) ([12]; 300 μM): 2
Score (nephrotoxicity on kidney organoids) ([12]; 1 mM): 4

CC(=O)N[C@@H](CSCCOC(=O)c1ccccc1)C(=O)N[C@@H](CCN)C(=O)N[C@H](C(=O)N[C@@H](CCN)C(=O)N[C@H]1CCNC(=O)[C@H]([C@@H](C)O)NC(=O)[C@H](CCN)NC(=O)[C@H](CCN)NC(=O)[C@H](CSCCOC(=O)c2ccccc2)NC(=O)[C@@H](Cc2ccccc2)NC(=O)[C@H](CCN)NC1=O)[C@@H](C)O [Compound 49] (Ac-C(Ethyl(2-OBz))[Dab]T[Dab][Dab][Dab][dF]C(Ethyl(2-OBz))[Dab][Dab]T; lactam 5-C)
MIC E. coli ATCC 25922 ([1]; median of triplicate): 0.5 µg/mL (≈ 0.335 µM)
MIC A. baumannii ATCC 19606 ([2]; median of triplicate): 1 to 2 µg/mL
MIC P. aeruginosa ATCC 27853 ([3]; median of triplicate): 1 µg/mL (≈ 0.669 µM)
MIC K. pneumoniae ATCC 33495 ([4]; median of triplicate): 0.5 µg/mL (≈ 0.335 µM)
MIC K. pneumoniae ATCC 700603 ([5]; median of triplicate): 0.5 µg/mL (≈ 0.335 µM)
MIC K. pneumoniae ATCC MS6671 ([6]; median of triplicate): >32 µg/mL
MIC E. coli ATCC MS8345 [7, 15]: 16 µg/mL (≈ 10.7 µM)
Score (nephrotoxicity on kidney organoids) ([12]; 100 μM): 3
Score (nephrotoxicity on kidney organoids) ([12]; 300 μM): 3
Score (nephrotoxicity on kidney organoids) ([12]; 1 mM): 4

CCCC(C)C(=O)OCCSC[C@@H](N)C(=O)N[C@H](C(=O)N[C@@H](CCN)C(=O)N[C@H]1CCNC(=O)[C@H]([C@@H](C)O)NC(=O)[C@H](CCN)NC(=O)[C@H](CCN)NC(=O)[C@H](CC(C)C)NC(=O)[C@@H](Cc2ccccc2)NC(=O)[C@H](CCN)NC1=O)[C@@H](C)O (stereo partly shown) [Compound 94] (H-[dC](X3)T[Dab][Dab][Dab][dF]L[Dab][Dab]T; lactam 4-C)
MIC E. coli ATCC 25922 ([1]; median of triplicate): 1 µg/mL (≈ 0.827 µM)
MIC A. baumannii ATCC 19606 ([2]; median of triplicate): 4 µg/mL (≈ 3.31 µM)
MIC P. aeruginosa ATCC 27853 ([3]; median of triplicate): 2 µg/mL (≈ 1.65 µM)
MIC K. pneumoniae ATCC 33495 ([4]; median of triplicate): 1 µg/mL (≈ 0.827 µM)
MIC K. pneumoniae ATCC 700603 ([5]; median of triplicate): 2 µg/mL (≈ 1.65 µM)
MIC K. pneumoniae ATCC MS6671 ([6]; median of triplicate): >32 µg/mL
MIC E. coli ATCC MS8345 [7, 15]: 16 µg/mL (≈ 13.2 µM)
Score (nephrotoxicity on kidney organoids) ([12]; 100 μM): 1
Score (nephrotoxicity on kidney organoids) ([12]; 300 μM): 2
Score (nephrotoxicity on kidney organoids) ([12]; 1 mM): 3

Colistin [reference compound]
IC50 Vero [13]: 949.7 ± 75.35 µg/mL
IC50 HaCaT [14]: 2578 ± 11.41 µg/mL
